The text below walks through data of PubChem BioAssay (NCI).

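In this assay, cells in 96-well plates receive the compound at five concentrations for 48 hours. Endpoints are linearly interpolated between the surrounding concentrations. Here, GI50 denotes the concentration required for 50% inhibition of growth. TGI: total growth inhibition.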 Where only a bound is given, the exact number is not on record here.

Some test systems named below: UACC-62 melanoma; SN12C renal; SF-539 CNS; HCC-2998 colon; CAKI-1 renal; SK-OV-3 ovarian; UACC-257 melanoma; MALME-3M melanoma.
Common to all, as to experiment: growth of human tumour cells (NCI), 48 h

As for `COc1ccc(/C=C(\C#N)c2cc(OC)c3c(c2)OCO3)cc1`, the GI50 is less than 0.01 µM in the assay on UACC-62 melanoma; 0.0583 µM in the assay on SN12C renal; less than 0.0131 µM in the assay on SF-539 CNS; 0.0264 µM in the assay on HCC-2998 colon; 0.465 µM with CAKI-1 renal; less than 0.0111 µM with SK-OV-3 ovarian. The GI50 with UACC-257 melanoma was 17 µM. For the same compound, the TGI was more than 100 µM with UACC-62 melanoma; more than 100 µM in the assay on SN12C renal; 11.5 µM in the assay with SF-539 CNS; 1.41 µM in the assay on HCC-2998 colon; 90.8 µM with CAKI-1 renal; 0.458 µM with SK-OV-3 ovarian. Moreover, in the assay with UACC-257 melanoma, the TGI worked out at 57 µM.
Take `c1cncc(C(Nc2cccc3cccnc23)Nc2cccc3cccnc23)c1`: the TGI with UACC-62 melanoma, in the assay on SN12C renal, in the assay with SF-539 CNS, in the assay on HCC-2998 colon, with CAKI-1 renal and in the assay on SK-OV-3 ovarian was more than 100 µM in each case. The TGI in the assay on UACC-257 melanoma is more than 100 µM.
Turning to `NC(=O)C1=C(c2ccccc2)c2ccccc2C1=O`, the TGI with UACC-62 melanoma was found to be 32.7 µM; in the assay with SN12C renal it was 33.8 µM; in the assay with HCC-2998 colon, 29.5 µM; with CAKI-1 renal it was 30.4 µM; with SK-OV-3 ovarian, 33.2 µM; with UACC-257 melanoma, 27.1 µM.
For the compound `CCOC(=O)C#Cc1ccc(C#CC(=O)OCC)cc1`, the TGI was more than 23.4 µM with UACC-62 melanoma; more than 47.5 µM with SF-539 CNS; more than 20.2 µM in the assay with CAKI-1 renal; 84.2 µM in the assay with SK-OV-3 ovarian; more than 56.4 µM in the assay on UACC-257 melanoma; 21.3 µM with MALME-3M melanoma.
On to `Cn1c(=O)c2[nH]c(COCc3nc4c([nH]3)c(=O)n(C)c(=O)n4C)nc2n(C)c1=O`, for which the TGI in the assay on UACC-62 melanoma, in the assay with SN12C renal, with SF-539 CNS, with CAKI-1 renal, with SK-OV-3 ovarian and in the assay with UACC-257 melanoma was more than 100 µM throughout. Moreover, the TGI in the assay with MALME-3M melanoma is more than 100 µM.
For `Cc1ccc(NC2=C(Sc3ccc(Cl)cc3)C(=O)N(Cc3ccccc3)C2=O)cc1Cl`, the GI50 with UACC-62 melanoma was 13.5 µM; with SN12C renal it was 12.3 µM; in the assay with SF-539 CNS, 3.45 µM; in the assay on HCC-2998 colon, 19.6 µM; in the assay on CAKI-1 renal, 3.44 µM; in the assay on SK-OV-3 ovarian it was 18.2 µM. Also, in the assay on UACC-257 melanoma, the GI50 is 7.37 µM. In addition, the TGI with UACC-62 melanoma was 30.5 µM; in the assay with SN12C renal it was 29 µM; in the assay on SF-539 CNS it was 16.9 µM; in the assay on HCC-2998 colon, more than 100 µM; with CAKI-1 renal, 15.9 µM; in the assay on SK-OV-3 ovarian it was 45.7 µM. The compound further returned a TGI in the assay with UACC-257 melanoma of 30.3 µM.
For `Cn1c2ccc([N+](=O)[O-])cc2c(=O)c2c(O)cc(O)cc21`, the TGI is more than 100 µM in the assay on UACC-62 melanoma; more than 100 µM in the assay with SN12C renal; 55.2 µM with SF-539 CNS; more than 100 µM in the assay with HCC-2998 colon; more than 100 µM in the assay on CAKI-1 renal; more than 100 µM in the assay on UACC-257 melanoma. The same compound registered a TGI with MALME-3M melanoma of 64.6 µM.
As for `CCOC(=O)[C@@H](C)C[C@H](Cc1ccccc1)NC(=O)c1csc([C@@H](C[C@H](C(C)C)N(C)C(=O)[C@H](CCC(C)C)NC(=O)[C@H]2CCCCN2C)OC(C)=O)n1`, the GI50 in the assay on UACC-62 melanoma was less than 0.00333 µM; in the assay with SN12C renal, 0.0159 µM; in the assay on SF-539 CNS it was 0.00838 µM; in the assay with HCC-2998 colon it was less than 0.00333 µM; in the assay with SK-OV-3 ovarian, 0.00929 µM; in the assay on UACC-257 melanoma it was 4.24 µM. Besides, the TGI with UACC-62 melanoma came out at 6.92 µM; with SN12C renal it was 4.59 µM; with SF-539 CNS it was 0.0289 µM; in the assay with HCC-2998 colon, 4.28 µM; with SK-OV-3 ovarian it was 9.26 µM; in the assay on UACC-257 melanoma it was 10.3 µM.
Consider `N#CC(C#N)=CN1CCN(C(=O)c2ccccc2)C1=S`, for which the GI50 in the assay with UACC-62 melanoma was 50.4 µM; in the assay on SN12C renal it was 24.6 µM; with CAKI-1 renal it was 28.7 µM; in the assay with SK-OV-3 ovarian, 66.7 µM; in the assay on UACC-257 melanoma, 25.3 µM; in the assay on MALME-3M melanoma, 10.2 µM. In addition, the TGI in the assay on UACC-62 melanoma is more than 100 µM; in the assay with SN12C renal it was 65.8 µM; in the assay on CAKI-1 renal, 89.4 µM; in the assay on SK-OV-3 ovarian it was more than 100 µM; in the assay with UACC-257 melanoma, 81.9 µM; with MALME-3M melanoma, 64.1 µM.
For `Cl.Fc1c[c-]c(-c2ccccn2)c(F)c1.[Pt].c1ccc([PH+](CC[PH+](c2ccccc2)c2ccccc2)c2ccccc2)cc1`, the GI50 with UACC-62 melanoma is 0.128 µM; in the assay on SF-539 CNS it was 0.164 µM; in the assay on CAKI-1 renal, 0.246 µM; with SK-OV-3 ovarian, 0.184 µM; in the assay with UACC-257 melanoma it was 0.165 µM; in the assay with MALME-3M melanoma, 0.061 µM. Also, the TGI in the assay on UACC-62 melanoma was found to be 0.364 µM; with SF-539 CNS, 0.976 µM; in the assay with CAKI-1 renal, 0.948 µM; in the assay with SK-OV-3 ovarian, 0.754 µM; in the assay with UACC-257 melanoma it was 0.975 µM; in the assay on MALME-3M melanoma, 0.409 µM.
`COC[C@H]1OC(=O)c2coc3c2[C@@]1(C)C1=C(C3=O)[C@@H]2CCC(=O)[C@@]2(C)C[C@H]1OC(C)=O`: the TGI in the assay with UACC-62 melanoma is 17.5 µM; in the assay with SN12C renal, more than 100 µM; with SF-539 CNS, 31 µM; with HCC-2998 colon it was 20 µM; in the assay on SK-OV-3 ovarian, 23.5 µM; in the assay on UACC-257 melanoma, more than 100 µM. This compound returned a TGI with MALME-3M melanoma of 39.3 µM. Besides, the results for the GI50 with SK-OV-3 ovarian and in the assay on MALME-3M melanoma were 2.22 µM and 1.44 µM, respectively.
`CCc1nc2ccc(Cc3ccc(C(=O)NO)cc3)cc2c(=O)n1CCc1ccccc1`: the GI50 was 0.52 µM in the assay on UACC-62 melanoma; 1.46 µM in the assay with SF-539 CNS; 1.44 µM in the assay on HCC-2998 colon; 1.44 µM in the assay with SK-OV-3 ovarian; 0.64 µM in the assay on UACC-257 melanoma; 0.586 µM in the assay on MALME-3M melanoma. In addition, the TGI with UACC-62 melanoma stood at 2.64 µM; in the assay with SF-539 CNS, 3.65 µM; in the assay with HCC-2998 colon, 3.1 µM; in the assay on SK-OV-3 ovarian it was 2.88 µM; in the assay with UACC-257 melanoma, 2.47 µM; in the assay on MALME-3M melanoma, 2.1 µM.
Turning to `CCc1oc2ccccc2c1C(=O)c1cc(Br)c(O)c(Br)c1`, the TGI in the assay with UACC-62 melanoma is 33.6 µM; with SN12C renal it was 67.3 µM; in the assay with SF-539 CNS, 32.9 µM; in the assay with CAKI-1 renal it was more than 100 µM; with SK-OV-3 ovarian, more than 100 µM; with UACC-257 melanoma it was 42.8 µM. This compound had a TGI with MALME-3M melanoma of 43.2 µM.
`Cc1cc(-c2nc3ccc(O)cc3s2)ccc1N`: the GI50 in the assay with UACC-62 melanoma was 57.7 µM; with SN12C renal, 39 µM; with HCC-2998 colon, more than 100 µM; in the assay with SK-OV-3 ovarian it was 36.9 µM; in the assay on UACC-257 melanoma it was more than 100 µM; with MALME-3M melanoma, 82.8 µM. Also, the TGI in the assay on UACC-62 melanoma, in the assay with SN12C renal, in the assay on HCC-2998 colon, in the assay with CAKI-1 renal, with SK-OV-3 ovarian and in the assay with UACC-257 melanoma was more than 100 µM throughout. Further, the TGI with MALME-3M melanoma is more than 100 µM.
